Measured values published in patent US20160195530A1, “METHOD FOR ANALYSIS OF NKT CELL FUNCTION” (RIKEN, priority 2005, published 2016).

Legend:
[1] = system: NKT cells in peripheral blood; assay: ELISPOT assay of IFN-γ-producing cells with α-GalCer-loaded mature DCs (autologous, allogeneic, heterologous); type: cell-based, human; details: α-GalCer 100 ng/ml
Text: In order to study whether activation of NKT cells in peripheral blood varies by DCs of different derivation, NKT cell activation in an autologous, allogeneic or heterologous system was studied by an ELISPOT assay with IFN-γ productivity as an index.
Human DCs were obtained by purifying CD14% monocytes with magnetic beads (Miltenyi Biotec Inc. Auburn, Calif.) and cultivating them for 7 days in the presence of 500 U/ml recombinant human IL-4 and 1,000 U/ml recombinant human GM-CSF. α-GalCer (100 ng/ml) or the same amount of vehicle (DMSO, Sigma) was loaded onto DCs at the 5th day, given maturation stimuli (10 ng/ml IL-1β, 10 ng/ml TNFα, and 1 μg/ml PGE2) at the 6th day, and recovered at the 7th day.
Bone marrow precursor cells were grown into DCs induced from mouse bone marrow in 5% FCS-containing RPMI-1640 using mouse GM-CSF. At the 6th day, α-GalCer (100 ng/ml) was added to immature bone marrow DCs, and cultivation was performed for 40 hr. For maturation of DCs, 100 ng/ml LPS was added at the 7th day, and cultivation was performed for 16 hr. Matured α-GalCer-pulsed DCs were recovered at the 8th day.
For detection of IFN-γ-secreting cells, 96-well filtration plates (Millipore, Bedford, Mass.) were coated with mouse anti-human IFN-γ (10 μg/ml, Mabtech, Sweden). PBMCs (1×10^6) were incubated in RPMI containing 5% human AB serum or 10% calf serum (complete medium or CM; GIBCO) in either presence or absence of α-GalCer (100 ng/ml). PMA (10 μg/ml) and ionomycin were used as positive controls. […] Spot-forming cells (SFC) were quantified with a microscope. When the reactivity was not less than 10 SFC/well and not less than twice the background (without αGalCer), the assay was scored as positive. In order to compare naive NKT cell activation ability of different APCs (autologous, allogeneic and heterologous DC) in cultures, Mφ-depleted cells (1×10^6/well) were cultivated with […] α-GalCer or vehicle-loaded APCs (1×10^5/well) in CM for 16 hr. α-GalCer-dependent IFN-γ-producing cells were measured by an ELISPOT assay.

[2] = system: NKT cell line; assay: Antigen-specific growth of NKT cell line cocultivated with heterologous DCs; type: cell-based, human; details: heterologous DCs in presence of antigen, 10 days, serially diluted NKT cell line mixed with NKT cell-removed PBMCs
Experimental: Mature DCs were stimulated for maturation, as well as pulsed using α-GalCer (100 ng/ml) for 48 hr in the 5th-7th days of the cultivation. 1×10^4 DCs pulsed with α-GalCer were added to the each well of 1×10^5 Mφ-depleted PBMCs in the presence of recombinant IL-2 (100 U/ml). 10-14 Days later, Va24^+ NKT cells were stained with FITC-labeled anti-Vα24 mAb, and selected using anti-FITC magnetic beads. Va24^+ NKT cells were maintained as a cell line in CM in the presence of 100 U/ml IL-2, and restimulated by PBMCs that had been irradiated in the presence of α-GalCer.
After serial dilution of the NKT cell line that was prepared by the method described in Example 4, the diluted solutions were mixed with NKT cell-removed PBMCs, cocultivated with heterologous DCs in the presence of an antigen (α-GalCel), and the growth rates were calculated 10 days later.

[3] = system: human NKT cells; assay: IFN-γ ELISA after cocultivation of isolated human NKT cells with α-GalCer-pulsed autologous or heterologous DCs; type: cell-based; details: α-GalCer-pulsed heterologous (mouse) DCs versus autologous DCs
Experimental: In order to clarify that a human NKT cell can be specifically activated by a heterologous DC, human NKT cells were isolated, cocultivated with α-GalCer-pulsed autologous or heterologous DCs, after which the culture supernatants were collected, and cytokine production was measured by the ELISA method.
After growth of the NKT cell with α-GalCer and IL-2, the cells were sorted using FACS Vantage with anti-invariant NKT antibodies, and cocultivated with α-GalCer-pulsed heterologous or autologous DCs, after which IFN-γ was quantified by the ELISA method.

[4] = system: NKT cell contained in peripheral blood of a healthy subject; assay: Cocultivation of Mφ-depleted PBMC with α-GalCer-pulsed mature mouse DC, flow cytometry and intracellular staining; type: cell-based, human; details: healthy subjects; α-GalCer-pulsed mature mouse DCs, IL-2 100 U/ml, 9 days
Experimental: At first, mouse DCs were induced from mouse bone marrow cells. Mouse bone marrow cells were cultivated in 5% FCS-containing RPMI-1640 in the presence of mouse GM-CSF under 5% CO2 at 37° C. for 5 days.
Subsequently, immature mouse DCs were maturated. To the culture obtained as mentioned above (containing immature mouse DCs), α-GalCer (100 ng/ml) was added at the 6th day, and the culture was cultivated for 40 hr. For an acieration of the maturation, 100 ng/ml LPS was added at the 7th day, and the culture was cultivated for 16 hr. Thus obtained α-GalCer-pulsed mature mouse DCs were recovered at the 8th day.
PBMCs were obtained by blood drawing from healthy subjects, and Mφ-depleted PBMCs were obtained by removing macrophages (Mφ) using an anti-CD14 antibody (simultaneously using a CD11c antibody as necessary) and magnetic beads.
α-GalCer-pulsed mature mouse DCs (5×10^4 cells/ml) obtained by the above-mentioned (1) and Mφ-depleted PBMCs (5×10^5 cells/ml) obtained by the above-mentioned (2) were cultivated in 10% FCS-containing RPMI-1640 in the presence of recombinant human IL-2 (100 U/ml) under 5% CO2 at 37° C. for 9 days.
After cultivation in accordance with the protocol of the above-mentioned (1)-(3), the number of NKT cells and the frequency of NKT cells having an cytokine production ability were measured by flow cytometry and intracellular staining. […]

CCCCCCCCCCCCCCCCCCCCCCCCCC(=O)N[C@@H](CO[C@H]1O[C@H](CO)[C@H](O)[C@H](O)[C@H]1O)[C@H](O)[C@H](O)CCCCCCCCCCCCCC [α-GalCer, 25,35,4R-1-0(α-galactopyranosyl)-2(N-hexacosanoylamino)-1,3,4-octadecanetriol]
α-GalCer-dependent NKT cell activation (IFN-γ productivity, ELISPOT) ([1]; high frequency NKT cell-containing group (% NKT>0.05%), autologous and heterologous DCs): activation of NKT cell was confirmed | α-GalCer-dependent NKT cell activation (IFN-γ productivity, ELISPOT) ([1]; low frequency NKT cell-containing group (% NKT<0.01%)): NKT cell activation was not confirmed | α-GalCer-dependent NKT cell activation (IFN-γ productivity, ELISPOT) ([1]; middle frequency NKT cell-containing group (0.01%<% NKT<0.05%)): activation of NKT cell was confirmed in an α-GalCer dependent manner, but the production amount was found to be decreased | antigen-specific growth of human NKT cells [2]: antigen-specifically grown by heterologous DCs | IFN-γ production (ELISA, culture supernatant) [3]: IFN-γ production was confirmed in the heterologous system, though it was lower than in the autologous system | cytokine production (frequency of NKT cells having cytokine production ability, IFN-γ) [4]: confirmed | α-GalCer-dependent growth of human NKT cells (number of NKT cells) [4]: confirmed
